This assay addresses T1, human HSD-1 (recombinant HSD-1) (Homo sapiens, UniProt P28845).
T1 construct: made in house
Kind of assay: HSD-1 (hydroxysteroid dehydrogenase 1) activity inhibitory action in vitro, SPA, conversion of cortisone to cortisol. It is filed as biochemical. As to conditions: recombinant human HSD-1 expressed using baculovirus system, 10 nM 3H cortisone, 500 μM NADPH, room temperature 90 to 120 min, read-out: hHSD1 (IC50 (nM)).

In US20110245223A1, “HETEROCYCLIC COMPOUNDS” (Japan Tobacco Inc., priority 2005, published 2011) one finds IC50 data, which are given here for 1 molecule.

T1 sequence (P28845 whole entry): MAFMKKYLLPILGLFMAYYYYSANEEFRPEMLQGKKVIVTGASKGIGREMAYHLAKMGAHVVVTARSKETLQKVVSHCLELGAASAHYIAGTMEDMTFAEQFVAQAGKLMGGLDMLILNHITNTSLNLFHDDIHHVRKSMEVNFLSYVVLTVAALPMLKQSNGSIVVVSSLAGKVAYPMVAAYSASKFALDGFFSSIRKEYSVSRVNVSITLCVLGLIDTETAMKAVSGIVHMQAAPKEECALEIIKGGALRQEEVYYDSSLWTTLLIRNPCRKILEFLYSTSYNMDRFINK

Consider `O=C(OCCO)N1CCC(n2ncc(C(=O)N3CC[C@@H](c4ccccc4C(F)(F)F)C3)c2C2CC2)CC1` [Example 58, 1-{5-cyclopropyl-1-[1-(2-hydroxyethoxycarbonyl)piperidin-4-yl]-1H-pyrazole-4-carbonyl}-[(S)-3-(2-trifluoromethylphenyl)]pyrrolidine], for which the IC50 was below 30 nM.

As a reminder, the IC50 is the concentration that inhibits the measured activity by half.
